The numbers were not newly measured in patent US9339504B2, “Orally disintegrating tablet compositions of lamotrigine” (ADARE Pharmaceuticals, Inc., priority 2007, dated 2016), which cites them from elsewhere.

Structures are written as SMILES. ≈ marks a conversion by molar mass, not a printed value. Where two headings read alike, the source gives them in different places.

Take `Nc1nnc(-c2cccc(Cl)c2Cl)c(N)n1` [Lamotrigine, 3,5-diamino-6-(2,3,-dichlorophenyl)-1,2,4-triazine]: the “solubility in 0.01N HCl” value (0.01N HCl, 25° C.) was about 3000 µg/mL (≈ 11.7 mM). In addition, the “solubility in 0.1N HCl” value (0.1N HCl, 25° C.) was about 4000 µg/mL (≈ 15.6 mM). The solubility in water runs as follows: (25° C.) about 170 µg/mL (≈ 0.664 mM); (37° C.) about 570 µg/mL (≈ 2.23 mM).
